Our source for the carcinogen call and TD50 values is PubChem BioAssay AID1745844 (Carcinogenic Potency Database (CPDB), 2022).

The data set concerns rodent lifetime carcinogenesis bioassay, tumor incidence TD50. Description: carcinogenic potency in animals, long-term in vivo studies, CPDB compilation (AID 1745844).
[1] abbreviates: mouse, strain B6AKF1, females, oral dosing, site: any site (literature study), lesion: several types, types named in the paper, dosed 76 weeks, study length 76 weeks.
The mark [2] stands for this setting: mouse, strain B6AKF1, females, oral dosing, site: liver, lesion: hepatoma, dosed 76 weeks, study length 76 weeks.
Setting [3] is: mouse, strain B6AKF1, females, oral dosing, site: lung, lesion: adenoma, dosed 76 weeks, study length 76 weeks.
Where [4] appears, read: mouse, strain B6AKF1, males, oral dosing, site: any site (literature study), lesion: several types, types named in the paper, dosed 76 weeks, study length 76 weeks.
[5] abbreviates: mouse, strain B6AKF1, males, oral dosing, site: liver, lesion: hepatoma, dosed 76 weeks, study length 76 weeks.
Where [6] appears, read: mouse, strain B6AKF1, males, oral dosing, site: lung, lesion: adenoma, dosed 76 weeks, study length 76 weeks.
Where [7] appears, read: mouse, strain B6C3F1, females, oral dosing, site: any site (literature study), lesion: several types, types named in the paper, dosed 76 weeks, study length 76 weeks.
[8] abbreviates: mouse, strain B6C3F1, females, oral dosing, site: liver, lesion: hepatoma, dosed 76 weeks, study length 76 weeks.
Where [9] appears, read: mouse, strain B6C3F1, males, oral dosing, site: any site (literature study), lesion: several types, types named in the paper, dosed 76 weeks, study length 76 weeks.
[10] abbreviates: mouse, strain B6C3F1, males, oral dosing, site: liver, lesion: hepatoma, dosed 76 weeks, study length 76 weeks.
The mark [11] stands for this setting: mouse, strain B6C3F1, males, oral dosing, site: lung, lesion: adenoma, dosed 76 weeks, study length 76 weeks.

As usually defined, the TD50 is the dose at which the toxic effect under study appears in half of the subjects.

The source made the active and inactive calls. No rule for the calls is given here.

`CCCCOC(=O)COc1ccc(Cl)cc1Cl`: the carcinogen call is “negative (inactive)” under setting [1]; “negative (inactive)” under setting [2]; “negative (inactive)” under setting [3]; “negative (inactive)” under setting [4]; “negative (inactive)” under setting [5]; “negative (inactive)” under setting [6]. Moreover, the carcinogen call under setting [8] was “negative (inactive)” and the carcinogen call (mouse, strain B6C3F1, females, oral dosing, site: lung, lesion: several types, types named in the paper, dosed 76 weeks, study length 76 weeks) was “negative (inactive)”. Also, the TD50 is 29.7 mg/kg/day (inactive) under setting [7], 38.1 mg/kg/day (inactive) under setting [9], 122 mg/kg/day (inactive) under setting [10] and 59 mg/kg/day (inactive) under setting [11].
For `C[N+](C)(C)CCO`, the TD50 was determined as 5650 mg/kg/day (mouse, strain C3H/HeN, males, in feed, site: liver, lesion: hepatocellular adenoma, dosed 52 weeks, study length 52 weeks); 6060 mg/kg/day (mouse, strain C3H/HeN, males, in feed, site: liver, lesion: hepatocellular carcinoma, dosed 52 weeks, study length 52 weeks); 2770 mg/kg/day (mouse, strain C3H/HeN, males, in feed, site: liver, lesion: several types, types named in the paper, dosed 52 weeks, study length 52 weeks). In addition, under “rat, strain Fischer 344, males, in feed, site: liver, lesion: neoplastic nodule, dosed 72 weeks, study length 103 weeks”, the carcinogen call was “negative (inactive)”.
`CC(=O)NNc1ccc(CO)cc1`: the TD50 by setting is: (mouse, strain Swiss albino, females, in drinking water, site: blood vessels, lesion: several types, types named in the paper, dosed 115 weeks, study length 115 weeks) 287 mg/kg/day; (mouse, strain Swiss albino, females, in drinking water, site: lung, lesion: several types, types named in the paper, dosed 115 weeks, study length 115 weeks) 329 mg/kg/day; (mouse, strain Swiss albino, males, in drinking water, site: blood vessels, lesion: several types, types named in the paper, dosed 115 weeks, study length 115 weeks) 252 mg/kg/day; (mouse, strain Swiss albino, males, in drinking water, site: lung, lesion: several types, types named in the paper, dosed 115 weeks, study length 115 weeks) 208 mg/kg/day. For the same molecule, the carcinogen call (mouse, strain Swiss albino, males, in drinking water, site: liver, lesion: hepatoma, dosed 115 weeks, study length 115 weeks) is “negative (inactive)”.
For the molecule `ClC1=C(Cl)C2(Cl)C3C(Cl)OC(Cl)C3C1(Cl)C2(Cl)Cl` (centres undefined), the carcinogen call under setting [1] was “negative (inactive)”; the carcinogen call under setting [2] is “negative (inactive)”; the carcinogen call under setting [3] is “negative (inactive)”; the carcinogen call under setting [5] is “negative (inactive)”; the carcinogen call under setting [8] was “negative (inactive)”. For the same molecule, the TD50 reads like this: under setting [4], 0.136 mg/kg/day (inactive); under setting [6], 0.146 mg/kg/day (inactive); under setting [7], 0.277 mg/kg/day (inactive); (mouse, strain B6C3F1, females, oral dosing, site: lung, lesion: adenoma, dosed 76 weeks, study length 76 weeks) 0.571 mg/kg/day (inactive); under setting [9], 0.242 mg/kg/day (inactive); under setting [10], 0.5 mg/kg/day (inactive). Further, the TD50 under setting [11] was 0.5 mg/kg/day (inactive).
Consider `O=NN(CCO)CCO`, for which the carcinogen call (rat, strain F344/DuCrj, males, in drinking water, site: liver, lesion: one or several types, types not named, dosed 40 weeks, study length 78 weeks) is “negative (inactive)”. Also, the TD50 (rat, strain Fischer 344, females, in drinking water, site: esophagus, lesion: papilloma, dosed 55 weeks, study length 105 weeks) was 2050 mg/kg/day; the TD50 (rat, strain Fischer 344, females, in drinking water, site: kidney, lesion: one or several types, types not named, dosed 55 weeks, study length 105 weeks) is 327 mg/kg/day; the TD50 (rat, strain Fischer 344, females, in drinking water, site: kidney, lesion: several types, types named in the paper, dosed 75 weeks, study length 130 weeks) is 42.2 mg/kg/day; the TD50 (rat, strain Fischer 344, females, in drinking water, site: liver, lesion: cholangioadenoma/carcinoma, dosed 75 weeks, study length 130 weeks) was found to be 56.8 mg/kg/day; the TD50 (rat, strain Fischer 344, females, in drinking water, site: liver, lesion: cholangiocarcinoma, dosed 55 weeks, study length 105 weeks) is 197 mg/kg/day; the TD50 (rat, strain Fischer 344, females, in drinking water, site: liver, lesion: hemangiosarcoma, dosed 50 weeks, study length 120 weeks) came to 45.4 mg/kg/day. The TD50 (rat, strain Fischer 344, females, in drinking water, site: liver, lesion: hepatocellular carcinoma, dosed 50 weeks, study length 120 weeks) is 1.94 mg/kg/day; the TD50 (rat, strain Fischer 344, females, in drinking water, site: liver, lesion: hepatocellular carcinoma, dosed 55 weeks, study length 105 weeks) was 3.27 mg/kg/day; the TD50 (rat, strain Fischer 344, females, in drinking water, site: liver, lesion: hepatocellular carcinoma, dosed 75 weeks, study length 130 weeks) was 4.05 mg/kg/day; the TD50 (rat, strain Fischer 344, females, in drinking water, site: liver, lesion: neoplastic nodule, dosed 75 weeks, study length 130 weeks) was 2.93 mg/kg/day; the TD50 (rat, strain Fischer 344, females, in drinking water, site: liver, lesion: several types, types named in the paper, dosed 75 weeks, study length 130 weeks) was 1.9 mg/kg/day; the TD50 (rat, strain Fischer 344, females, in drinking water, site: nasal cavity, lesion: adenocarcinoma, dosed 55 weeks, study length 105 weeks) is 44.1 mg/kg/day. Besides, the TD50 runs as follows: (rat, strain Fischer 344, females, in drinking water, site: nasal cavity, lesion: olfactory carcinoma, dosed 55 weeks, study length 105 weeks) 128 mg/kg/day; (rat, strain Fischer 344, females, in drinking water, site: nasal cavity, lesion: squamous-cell carcinoma, dosed 55 weeks, study length 105 weeks) 4320 mg/kg/day; (rat, strain Fischer 344, males, in drinking water, site: esophagus, lesion: carcinoma, dosed 48 weeks, study length 95 weeks) 432 mg/kg/day; (rat, strain Fischer 344, males, in drinking water, site: esophagus, lesion: papilloma, dosed 48 weeks, study length 95 weeks) 207 mg/kg/day; (rat, strain Fischer 344, males, in drinking water, site: kidney, lesion: one or several types, types not named, dosed 48 weeks, study length 95 weeks) 99.7 mg/kg/day; (rat, strain Fischer 344, males, in drinking water, site: kidney, lesion: several types, types named in the paper, dosed 75 weeks, study length 125 weeks) 19 mg/kg/day. Besides, the TD50 was 38.6 mg/kg/day (rat, strain Fischer 344, males, in drinking water, site: liver, lesion: cholangioadenoma/carcinoma, dosed 75 weeks, study length 125 weeks); 23.9 mg/kg/day (rat, strain Fischer 344, males, in drinking water, site: liver, lesion: cholangiocarcinoma, dosed 48 weeks, study length 95 weeks); 2.77 mg/kg/day (rat, strain Fischer 344, males, in drinking water, site: liver, lesion: hepatocellular carcinoma, dosed 48 weeks, study length 95 weeks); 9.03 mg/kg/day (rat, strain Fischer 344, males, in drinking water, site: liver, lesion: hepatocellular carcinoma, dosed 75 weeks, study length 125 weeks); 3.93 mg/kg/day (rat, strain Fischer 344, males, in drinking water, site: liver, lesion: neoplastic nodule, dosed 75 weeks, study length 125 weeks); 2.84 mg/kg/day (rat, strain Fischer 344, males, in drinking water, site: liver, lesion: several types, types named in the paper, dosed 75 weeks, study length 125 weeks). Further, the TD50 (rat, strain Fischer 344, males, in drinking water, site: nasal cavity, lesion: adenocarcinoma, dosed 48 weeks, study length 95 weeks) was 15.5 mg/kg/day; the TD50 (rat, strain Fischer 344, males, in drinking water, site: nasal cavity, lesion: olfactory carcinoma, dosed 48 weeks, study length 95 weeks) is 50.4 mg/kg/day; the TD50 (rat, strain Fischer 344, males, in drinking water, site: nasal cavity, lesion: squamous-cell carcinoma, dosed 48 weeks, study length 95 weeks) was 280 mg/kg/day; the TD50 (rat, strain Sprague-Dawley, males, in drinking water, site: all sites, lesion: one or several types, types not named, dosed 162 weeks, study length 167 weeks) is 55.6 mg/kg/day; the TD50 (rat, strain Sprague-Dawley, males, in drinking water, site: any site (literature study), lesion: benign tumor, dosed 162 weeks, study length 167 weeks) is 7.93 mg/kg/day; the TD50 (rat, strain Sprague-Dawley, males, in drinking water, site: any site (literature study), lesion: malignant tumor, dosed 162 weeks, study length 167 weeks) was 23.5 mg/kg/day. Further, the TD50 (rat, strain Sprague-Dawley, males, in drinking water, site: gastrointestinal tract, lesion: several types, types named in the paper, dosed 162 weeks, study length 167 weeks) is 143 mg/kg/day; the TD50 (rat, strain Sprague-Dawley, males, in drinking water, site: liver, lesion: cholangiocarcinoma, ductular, dosed 118 weeks, study length 147 weeks) was 10700 mg/kg/day; the TD50 (rat, strain Sprague-Dawley, males, in drinking water, site: liver, lesion: hemangioendothelioma, benign, dosed 162 weeks, study length 167 weeks) is 126 mg/kg/day; the TD50 (rat, strain Sprague-Dawley, males, in drinking water, site: liver, lesion: hepatocellular adenocarcinoma, dosed 118 weeks, study length 147 weeks) is 9.51 mg/kg/day; the TD50 (rat, strain Sprague-Dawley, males, in drinking water, site: liver, lesion: hepatocellular adenoma, dosed 162 weeks, study length 167 weeks) is 347 mg/kg/day; the TD50 (rat, strain Sprague-Dawley, males, in drinking water, site: liver, lesion: hepatocellular carcinoma, dosed 162 weeks, study length 167 weeks) was 70.4 mg/kg/day. Moreover, the TD50 (rat, strain Sprague-Dawley, males, in drinking water, site: liver, lesion: several types, types named in the paper, dosed 118 weeks, study length 147 weeks) was 8.23 mg/kg/day; the TD50 (rat, strain Sprague-Dawley, males, in drinking water, site: liver, lesion: several types, types named in the paper, dosed 162 weeks, study length 167 weeks) was 38.4 mg/kg/day; the TD50 (rat, strain Sprague-Dawley, males, in drinking water, site: nasal cavity, lesion: olfactory neuroepithelioma, dosed 118 weeks, study length 147 weeks) amounted to 679 mg/kg/day; the TD50 (rat, strain Sprague-Dawley, males, in drinking water, site: nasal cavity, lesion: several types, types named in the paper, dosed 118 weeks, study length 147 weeks) was 168 mg/kg/day; the TD50 (rat, strain Sprague-Dawley, males, in drinking water, site: nasal cavity, lesion: squamous-cell carcinoma, dosed 118 weeks, study length 147 weeks) was found to be 954 mg/kg/day; the TD50 (rat, strain Sprague-Dawley, males, in drinking water, site: nervous system, lesion: one or several types, types not named, dosed 162 weeks, study length 167 weeks) was 42.5 mg/kg/day.
`C=C(F)F` showed a TD50 (rat, strain Sprague-Dawley, females, by gavage, site: fat, lesion: lipoma, dosed 52 weeks, study length 141 weeks) of 60.3 mg/kg/day; a TD50 (rat, strain Sprague-Dawley, females, by gavage, site: fat, lesion: liposarcoma, dosed 52 weeks, study length 141 weeks) of 122 mg/kg/day; a TD50 (rat, strain Sprague-Dawley, males, by gavage, site: fat, lesion: liposarcoma, dosed 52 weeks, study length 141 weeks) of 38.8 mg/kg/day.
